# Source: article PMC5656653, “Evaluation of Ga-DOTA-(D-Asp)n as bone imaging agents: D-aspartic acid peptides as carriers to bone” (Scientific Reports, 2017)
# Read-outs that look alike come from different tables or passages of the source. Where a SMILES comes first, the peptide text is derived from it. [ ]: non-standard residue; d: D form. The star is where a group is joined. DOTA = O=C(O)CN1CCN(CC(=O)O)CCN(CC(=O)*)CCN(CC(=O)O)CC1
# Tests used:
# [1] = Biodistribution experiments in normal mice after i.v. injection; assay type: in vivo; conditions: i.v.; for tissue uptake dose at 10 min / tissue uptake dose at 1 h / tissue uptake dose at 3 h: male, ddY, mouse, in vivo, iv, total radioactivity; for tissue uptake dose at 10 min / tissue uptake dose at 1 h / tissue uptake dose at 3 h / F/B ratio (Femur:blood ratio): mice, mean (SD)
# Procedure, shortened: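 Male ddY mice (6 weeks, 27–32 g) received tracer i.v. (37–740 kBq/100 μL); 4–5 per group sacrificed at 10, 60 and 180 min. Weighed tissues and whole left femur (bone) gamma-counted with background and decay correction.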
# [2] = Urine analyses by RP-HPLC after i.v. injection; assay type: in vivo; conditions: mice, urine from bladder at 1 h post-injection
# Method: ^67Ga-DOTA-(L-Asp)14 was prepared according to a method described previously. ^67Ga-DOTA-(L-Asp)14 or ^67Ga-DOTA-(D-Asp)14 solution (370 kBq / 200 μL) was intravenously injected to 6-week-old male ddY mice. At 1 h post-injection, mice were sacrificed and their […] were taken from the bladders. After ultrafiltration (Microcon-30, Merck KGaA), the filtrate samples were analyzed by RP-HPLC at a flow rate of 1 mL/min with a gradient mobile phase from water containing 0.1% TFA to 20% methanol in water containing 0.1% TFA for 20 min.
smiles,measurement,setting,value
"O=C(O)C[C@@H](NC(=O)[C@@H](CC(=O)O)NC(=O)[C@@H](CC(=O)O)NC(=O)[C@@H](CC(=O)O)NC(=O)[C@@H](CC(=O)O)NC(=O)[C@@H](CC(=O)O)NC(=O)[C@@H](CC(=O)O)NC(=O)[C@@H](CC(=O)O)NC(=O)[C@@H](CC(=O)O)NC(=O)[C@@H](CC(=O)O)NC(=O)[C@@H](CC(=O)O)NC(=O)[C@@H](CC(=O)O)NC(=O)[C@@H](CC(=O)O)NC(=O)[C@@H](CC(=O)O)NC(=O)CN1CCN(CC(=O)O)CCN(CC(=O)O)CCN(CC(=O)O)CC1)C(=O)O [^67Ga-DOTA-(D-Asp)14, metal not drawn] ({DOTA}-[dD][dD][dD][dD][dD][dD][dD][dD][dD][dD][dD][dD][dD][dD]-OH)",tissue uptake dose at 10 min,"[1]; 10 min after injection, footnote b, read-out: Biodistribution of radioactivity, Stomach",0.28 %ID
same,tissue uptake dose at 10 min,"[1]; 10 min after injection, read-out: Biodistribution of radioactivity, Blood",2.46 %ID
same,tissue uptake dose at 10 min,"[1]; 10 min after injection, read-out: Biodistribution of radioactivity, Bone (Femur)",11.9 %ID
same,tissue uptake dose at 10 min,"[1]; 10 min after injection, read-out: Biodistribution of radioactivity, Brain",0.06 %ID
same,tissue uptake dose at 10 min,"[1]; 10 min after injection, read-out: Biodistribution of radioactivity, Heart",0.94 %ID
same,tissue uptake dose at 10 min,"[1]; 10 min after injection, read-out: Biodistribution of radioactivity, Kidney",8.15 %ID
same,tissue uptake dose at 10 min,"[1]; 10 min after injection, read-out: Biodistribution of radioactivity, Large-intestine",0.4 %ID
same,tissue uptake dose at 10 min,"[1]; 10 min after injection, read-out: Biodistribution of radioactivity, Liver",0.51 %ID
same,tissue uptake dose at 10 min,"[1]; 10 min after injection, read-out: Biodistribution of radioactivity, Lung",1.75 %ID
same,tissue uptake dose at 10 min,"[1]; 10 min after injection, read-out: Biodistribution of radioactivity, Muscle",0.77 %ID
same,tissue uptake dose at 10 min,"[1]; 10 min after injection, read-out: Biodistribution of radioactivity, Pancreas",0.88 %ID
same,tissue uptake dose at 10 min,"[1]; 10 min after injection, read-out: Biodistribution of radioactivity, Small-intestine",0.55 %ID
same,tissue uptake dose at 10 min,"[1]; 10 min after injection, read-out: Biodistribution of radioactivity, Spleen",0.48 %ID
same,tissue uptake dose at 1 h,"[1]; 60 min after injection, footnote b, read-out: Biodistribution of radioactivity, Stomach",0.07 %ID
same,tissue uptake dose at 1 h,"[1]; 60 min after injection, read-out: Biodistribution of radioactivity, Blood",0.09 %ID
same,tissue uptake dose at 1 h,"[1]; 60 min after injection, read-out: Biodistribution of radioactivity, Bone (Femur)",13 %ID
same,tissue uptake dose at 1 h,"[1]; 60 min after injection, read-out: Biodistribution of radioactivity, Brain",0.01 %ID
same,tissue uptake dose at 1 h,"[1]; 60 min after injection, read-out: Biodistribution of radioactivity, Heart",0.18 %ID
same,tissue uptake dose at 1 h,"[1]; 60 min after injection, read-out: Biodistribution of radioactivity, Kidney",1.21 %ID
same,tissue uptake dose at 1 h,"[1]; 60 min after injection, read-out: Biodistribution of radioactivity, Large-intestine",0.1 %ID
same,tissue uptake dose at 1 h,"[1]; 60 min after injection, read-out: Biodistribution of radioactivity, Liver",0.15 %ID
same,tissue uptake dose at 1 h,"[1]; 60 min after injection, read-out: Biodistribution of radioactivity, Lung",0.28 %ID
same,tissue uptake dose at 1 h,"[1]; 60 min after injection, read-out: Biodistribution of radioactivity, Muscle",0.16 %ID
same,tissue uptake dose at 1 h,"[1]; 60 min after injection, read-out: Biodistribution of radioactivity, Pancreas",0.27 %ID
same,tissue uptake dose at 1 h,"[1]; 60 min after injection, read-out: Biodistribution of radioactivity, Small-intestine",0.18 %ID
same,tissue uptake dose at 1 h,"[1]; 60 min after injection, read-out: Biodistribution of radioactivity, Spleen",0.12 %ID
same,tissue uptake dose at 3 h,"[1]; 180 min after injection, footnote b, read-out: Biodistribution of radioactivity, Stomach",0.06 %ID
same,tissue uptake dose at 3 h,"[1]; 180 min after injection, read-out: Biodistribution of radioactivity, Blood",0.03 %ID
same,tissue uptake dose at 3 h,"[1]; 180 min after injection, read-out: Biodistribution of radioactivity, Bone (Femur)",14.8 %ID
same,tissue uptake dose at 3 h,"[1]; 180 min after injection, read-out: Biodistribution of radioactivity, Brain",0.01 %ID
same,tissue uptake dose at 3 h,"[1]; 180 min after injection, read-out: Biodistribution of radioactivity, Heart",0.11 %ID
same,tissue uptake dose at 3 h,"[1]; 180 min after injection, read-out: Biodistribution of radioactivity, Kidney",0.54 %ID
same,tissue uptake dose at 3 h,"[1]; 180 min after injection, read-out: Biodistribution of radioactivity, Large-intestine",0.2 %ID
same,tissue uptake dose at 3 h,"[1]; 180 min after injection, read-out: Biodistribution of radioactivity, Liver",0.05 %ID
same,tissue uptake dose at 3 h,"[1]; 180 min after injection, read-out: Biodistribution of radioactivity, Lung",0.03 %ID
same,tissue uptake dose at 3 h,"[1]; 180 min after injection, read-out: Biodistribution of radioactivity, Muscle",0.16 %ID
same,tissue uptake dose at 3 h,"[1]; 180 min after injection, read-out: Biodistribution of radioactivity, Pancreas",0.14 %ID
same,tissue uptake dose at 3 h,"[1]; 180 min after injection, read-out: Biodistribution of radioactivity, Small-intestine",0.12 %ID
same,tissue uptake dose at 3 h,"[1]; 180 min after injection, read-out: Biodistribution of radioactivity, Spleen",0.12 %ID
same,F/B ratio (Femur:blood ratio),[1]; 10 min after injection,4.90 (0.70)
same,F/B ratio (Femur:blood ratio),[1]; 60 min after injection,180.99 (91.94)
same,F/B ratio (Femur:blood ratio),[1]; 180 min after injection,526.37 (130.49)
same,Accumulation of radioactivity in bone (in words),[1]; normal mice,high accumulation and retention of radioactivity in bone
same,Radioactivity in the kidneys (in words),[1]; normal mice,extremely low accumulation of radioactivity in the kidneys
same,Ratio of the intact complex in urine,[2],85.8 ± 17.4%
